Measured values reported in patent US4110345A, “2,2-Difluoro-1,3-benzodioxole-5-(α-alkyl)-acetic acids, and their use for the preparation of insecticides and acaricides” (American Cyanamid Company, priority 1977, dated 1978).
Where two headings read alike, the source gives them in different places.

How the values were obtained:
[1] = tested on: Third-Instar Tobacco Budworm Larvae; assay: whole plant or invertebrate; assay type: in vivo; conditions: Heliothis virescens, in Gossypium hirsutum, foliar, 72 h, larval counts after 72 hours; for mortality at 30 ppm: read-out: Average % Mortality, 30 ppm; for mortality at 100 ppm: read-out: Average % Mortality, 100 ppm; for mortality at 300 ppm: read-out: Average % Mortality, 300 ppm; for mortality at 900 ppm: read-out: Average % Mortality, 900 ppm
Excerpt: Residual insecticidal activity obtained with foliar treatment of cotton plants Young cotton plants with at least two expanded true leaves growing in 10 cm plastic pots were dipped, usually one leaf at a time in a 65% acetone-35% water solution of test compound with agitation for three seconds. The concentration of the compound in the solutions was 30 ppm, 100 ppm, 300 ppm or 900 ppm of active ingredient. After the leaves had dried, two leaves from each of two plants were excised and placed in petri dishes (90 mm × 100 mm) on moist filter paper (9 cm Whatman No. 1). Five third-instar tobacco budworm larvae were placed on each leaf and the petri dish capped. The infested dishes were than placed in a holding room with continuous light, ambient temperature of 80° F and 50% r.h. Larval counts were made after 72 hours. The remaining plants were placed under high intensity lights in the greenhouse adjusted to provide 14 hours of light per day. Leaf samples were assayed with third instar tobacco budworm larvae after 3, 7, 10 and 14 days exposure in the greenhouse. The data obtained are summarized in Table I. |Residual Insecticidal Activity of a Test Compound on Cotton Plants Using |Third-Instar Tobacco Budworm Larvae for Bioassay | * = Average % Mortality 20 TBW/Point

[2] = tested on: adult Boophilus microplus ticks; assay: whole plant or invertebrate; assay type: in vivo; conditions: Rhipicephalus microplus, in Bos taurus, topical, 48 h, read-out: Percent Adult Tick Mortality
Description: The effectiveness of an acaricide prepared from the novel 2,2-difluoro-1,3-dioxole-5-(α-alkyl)acetic acids of the present invention for the control of adult Boophilus microplus ticks is determined in the following test wherein the test compound is dissolved in 10% acetone-90% water mixture in sufficient amounts to give solutions containing […] ppm of test compound.
Adult engorged female ticks are dipped in the test solutions for 3 seconds and placed in individual containers and held for 48 hours in a room maintained at 80° F and 50% r.h. At the end of the holding period the ticks are examined and egg deposits counted. […]
Percent Adult Tick Mortality

`CC(C)C(C(=O)OC(C#N)c1cccc(Oc2ccccc2)c1)c1ccc2c(c1)OC(F)(F)O2` (stereo not shown) [drawing 6] gave a mortality at 30 ppm ([1]; 0 days residual) of 45%, a mortality at 30 ppm ([1]; 3 days residual) of 0% and a mortality at 30 ppm ([1]; 7 days residual) of 10%. The mortality at 30 ppm ([1]; 10 days residual) was 10%, the mortality at 30 ppm ([1]; 14 days residual) was 10% and the mortality at 100 ppm ([1]; 0 days residual) was 90%. For the same molecule, the mortality at 100 ppm ([1]; 3 days residual) was 55%, the mortality at 100 ppm ([1]; 7 days residual) was 55% and the mortality at 100 ppm ([1]; 10 days residual) was 65%. For the same molecule, the mortality at 100 ppm ([1]; 14 days residual) was 10%, the mortality at 300 ppm ([1]; 0 days residual) was 95% and the mortality at 300 ppm ([1]; 3 days residual) was 90%. For the same molecule, the mortality at 300 ppm ([1]; 7 days residual) was 100%, the mortality at 300 ppm ([1]; 10 days residual) was 90% and the mortality at 300 ppm ([1]; 14 days residual) was 95%. The mortality at 900 ppm ([1]; 0 days residual) was 100%, the mortality at 900 ppm ([1]; 3 days residual) was 100% and the mortality at 900 ppm ([1]; 7 days residual) was 100%. For the same molecule, the mortality at 900 ppm ([1]; 10 days residual) was 100% and the mortality at 900 ppm ([1]; 14 days residual) was 100%.

`CC(C)C(C(=O)OC(C#N)c1cccc(Oc2ccccc2)c1)c1ccc2c(c1)OC(F)(F)O2` (stereo not shown) [drawing 7] showed a mortality at 7.3 ppm [2] of 80.2%, a mortality at 15.6 ppm [2] of 85.8% and a mortality at 31.2 ppm [2] of 88.4%. It also gave a mortality at 62.5 ppm [2] of 99.7% and a mortality at 125 ppm [2] of 98.3%.
